# Earlier results in US20220288013A1, “1,8-CINEOL COATED IMPLANTS” (THE BOARD OF TRUSTEES OF THE LELAND STANFORD JUNIOR …, priority 2019, published 2022).
# Tests used:
# WNT/β-catenin pathway = settings: permanent HNSCC cell lines
# [1] = test system: head and neck squamous cell carcinoma (HNSCC) cell lines; settings: exposure of different cell lines; permanent HNSCC cell lines
# Wnt11 = settings: HNSCC cell lines
structure (smiles),measurement,setting,value
"CC12CCC(CC1)C(C)(C)O2 [1,8-cineol, 1,3,3-Trimethyl-2-oxabicyclo[2.2.2]octane]","activity of the WNT/β-catenin pathway (canonical pathway), especially of Wnt11",WNT/β-catenin pathway,decrease the activity of the WNT/β-catenin pathway
same,proliferation,[1],inhibit proliferation
same,expression of Wnt11,Wnt11,reduces expression of Wnt11
